The assay has as its target EGFR (human) (UniProt P00533). Briefly: Assessment of EGFR Kinase Activity.

The text below walks through data of the Kinase Knowledgebase extract (Sharma et al. 2016).

pIC50: −log10 of the molar value.

Usually pIC50 stands for the negative decadic logarithm of the IC50, by convention in mol/L. Low values mean a high IC50, high ones a low IC50.

Chain of EGFR (human) (P00533 whole entry, looked up): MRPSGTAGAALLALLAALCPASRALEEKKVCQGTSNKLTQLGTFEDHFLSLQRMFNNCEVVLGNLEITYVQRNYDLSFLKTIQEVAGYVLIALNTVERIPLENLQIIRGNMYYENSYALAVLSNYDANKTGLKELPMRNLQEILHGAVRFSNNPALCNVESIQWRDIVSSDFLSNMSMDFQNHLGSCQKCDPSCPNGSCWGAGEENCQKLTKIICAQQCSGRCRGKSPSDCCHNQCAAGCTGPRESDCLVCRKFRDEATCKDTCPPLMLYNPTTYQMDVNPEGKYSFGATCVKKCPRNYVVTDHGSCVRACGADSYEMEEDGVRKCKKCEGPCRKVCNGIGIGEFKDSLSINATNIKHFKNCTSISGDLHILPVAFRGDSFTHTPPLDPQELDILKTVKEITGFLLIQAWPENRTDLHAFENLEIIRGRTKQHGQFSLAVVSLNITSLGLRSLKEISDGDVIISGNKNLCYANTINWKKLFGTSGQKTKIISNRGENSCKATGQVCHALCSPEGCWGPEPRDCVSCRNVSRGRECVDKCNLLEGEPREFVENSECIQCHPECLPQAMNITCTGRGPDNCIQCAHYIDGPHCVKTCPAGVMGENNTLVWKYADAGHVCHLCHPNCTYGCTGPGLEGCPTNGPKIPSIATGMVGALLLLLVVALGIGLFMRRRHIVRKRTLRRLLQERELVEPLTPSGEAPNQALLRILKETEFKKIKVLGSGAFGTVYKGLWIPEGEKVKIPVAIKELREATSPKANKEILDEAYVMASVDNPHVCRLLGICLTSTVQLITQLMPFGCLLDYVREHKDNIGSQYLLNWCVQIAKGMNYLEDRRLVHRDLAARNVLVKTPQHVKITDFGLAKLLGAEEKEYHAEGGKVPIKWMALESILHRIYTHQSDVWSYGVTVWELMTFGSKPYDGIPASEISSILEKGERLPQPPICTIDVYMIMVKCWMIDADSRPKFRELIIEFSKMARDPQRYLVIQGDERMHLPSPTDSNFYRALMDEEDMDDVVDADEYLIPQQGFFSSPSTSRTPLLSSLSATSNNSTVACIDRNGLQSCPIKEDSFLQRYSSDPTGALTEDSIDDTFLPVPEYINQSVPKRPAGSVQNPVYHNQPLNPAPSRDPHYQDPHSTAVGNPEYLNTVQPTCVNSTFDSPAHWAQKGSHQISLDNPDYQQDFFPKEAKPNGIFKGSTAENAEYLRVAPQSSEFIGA

With `CP1(=O)CCN(CCCc2ccc3ncnc(Nc4ccc(OCc5cccc(F)c5)c(Cl)c4)c3c2)CC1`, the pIC50 is > 7.00.
With `CC1(C)COP(=O)(CCNCc2ccc(-c3ccc4ncnc(Nc5ccc(OCc6cccc(F)c6)c(Cl)c5)c4c3)o2)OC1` the figure was > 7.00; with `CP(C)(=O)CN1CCN(Cc2ccc(-c3ccc4ncnc(Nc5ccc(OCc6cccc(F)c6)c(Cl)c5)c4c3)o2)CC1`, > 7.00; with `CP(C)(=O)CCNCC#Cc1ccc2ncnc(Nc3ccc(OCc4cccc(F)c4)c(Cl)c3)c2c1`, > 7.00.
The same measure for `COP(=O)(CCNCc1ccc(-c2ccc3ncnc(Nc4ccc(OCc5cccc(F)c5)c(Cl)c4)c3c2)o1)OC`: > 7.00; for `Cc1cccc(COc2ccc(Nc3ncnc4ccc(-c5ccc(CN6CCP(C)(=O)CC6)o5)cc34)cc2Cl)n1`: 6.00 to 7.00.
With `Cc1ccc(Oc2ccc(Nc3ncnc4ccc(-c5ccc(CN6CCP(C)(=O)CC6)o5)cc34)cc2C)cn1` the figure was > 7.00; with `CP1(=O)CCN(Cc2ccc(-c3ccc4ncnc(Nc5ccc(Br)cc5F)c4c3)o2)CC1`, 6.00 to 7.00.
In the case of `CP(C)(=O)CCN(CCO)Cc1ccc(-c2ccc3ncnc(Nc4ccc5c(cnn5Cc5cccc(F)c5)c4)c3c2)o1`, the pIC50 was > 7.00.
The same measure for `CP1(=O)CCN(Cc2ccc(-c3ccc4ncnc(Nc5ccc(OCc6cccc[n+]6[O-])c(Cl)c5)c4c3)o2)CC1`: > 7.00.
The same measure for `CP1(=O)CCN(CC#Cc2ccc3ncnc(Nc4ccc(OCc5cccc(F)c5)c(Cl)c4)c3c2)CC1`: > 7.00; for `CP(C)(=O)CNCc1ccc(-c2ccc3ncnc(Nc4ccc(OCc5cccc(F)c5)c(Cl)c4)c3c2)o1`: > 7.00; for `Cc1cccc(COc2ccc(Nc3ncnc4ccc(-c5ccc(CN6CCP(C)(=O)CC6)o5)cc34)cc2Cl)[n+]1[O-]`: > 7.00.
As for `CP1(=O)CCN(Cc2ccc(-c3ccc4ncnc(Nc5cccc(Cl)c5F)c4c3)o2)CC1`, the pIC50 is > 7.00.
The same measure for `CP1(=O)CCN(Cc2ccc(-c3ccc4ncnc(Nc5ccc(OCc6ccccn6)c(Cl)c5)c4c3)o2)CC1`: > 7.00.
As to `C#Cc1cc(Nc2ncnc3ccc(-c4ccc(CN5CCP(C)(=O)CC5)o4)cc23)ccc1OCc1cccc(F)c1`, the pIC50 is > 7.00.
The same measure for `CP(C)(=O)CCNCc1ccc(-c2ccc3ncnc(Nc4ccc(OCc5cccc(F)c5)c(Cl)c4)c3c2)o1`: > 7.00; for `CP1(=O)CCN(Cc2ccc(-c3ccc4ncnc(Nc5ccc6c(cnn6Cc6cccc(F)c6)c5)c4c3)o2)CC1`: > 7.00.
For `CP1(=O)CCN(Cc2ccc(-c3ccc4ncnc(Nc5ccc(Br)c(Cl)c5F)c4c3)o2)CC1`, the pIC50 was > 7.00.
The same measure for `CP1(=O)CCN(C/C=C/c2ccc3ncnc(Nc4ccc(OCc5cccc(F)c5)c(Cl)c4)c3c2)CC1`: > 7.00; for `C[C@@H](Nc1ncnc2ccc(-c3ccc(CN4CCP(C)(=O)CC4)o3)cc12)c1ccccc1`: > 7.00; for `CCOP1(=O)CCN(Cc2ccc(-c3ccc4ncnc(Nc5ccc(OCc6cccc(F)c6)c(Cl)c5)c4c3)o2)CC1`: > 7.00.
With `CP1(=O)CCN(Cc2ccc(-c3ccc4ncnc(Nc5ccc(OCc6cccc(F)c6)c(Br)c5)c4c3)o2)CC1` the figure was > 7.00; with `CP1(=O)CCN(CC#Cc2ccc3ncnc(Nc4ccc5c(cnn5Cc5cccc(F)c5)c4)c3c2)CC1`, > 7.00; with `CP(C)(=O)CCNCc1ccc(-c2ccc3ncnc(Nc4ccc5c(cnn5Cc5cccc(F)c5)c4)c3c2)o1`, > 7.00.
The same measure for `CCN(CCP(C)(C)=O)Cc1ccc(-c2ccc3ncnc(Nc4ccc5c(cnn5Cc5cccc(F)c5)c4)c3c2)o1`: > 7.00; for `CP1(=O)CCN(Cc2ccc(-c3ccc4ncnc(Nc5ccc(OCc6cnccn6)c(Cl)c5)c4c3)o2)CC1`: > 7.00; for `CP1(=O)CCN(Cc2ccc(-c3ccc4ncnc(Nc5ccc(OCc6cccc(F)c6)c(Cl)c5)c4c3)o2)CC1`: > 7.00.
